Where a name gives a salt, the structure may show the parent alone. Read-outs that look alike come from different tables or passages of the source.
Columns and labels:
IL-1β = assay: THP-1 AlphaLISA IL-1β cytokine inhibition assay (differentiated THP-1 cells, LPS then nigericin); type: cell-based; conditions: for IC50: THP-1 cell, PMA-differentiated, LPS 24 hr + nigericin 1 hour; for effectiveness in the IL-1β assay: THP-1 cells, result in words
Description: Measuring Inhibitory Effects on IL-1β Cytokine Output from THP-1s
The cytokine inhibition profiles of compounds of formula (I) were determined in a differentiated THP-1 cell assay. All assays were performed in RPMI-1640 growth medium (Gibco), supplemented with 10% fetal bovine serum (FBS; Gibco), 1% penicillin-streptomycin and 1% sodium pyruvate unless specified otherwise. The IL-1β cytokine inhibition assay was run in a background of differentiated THP-1 cells as described below. All reagents described were from Sigma-Aldrich unless specified otherwise. Compounds were prepared as 10 mM DMSO stocks.
THP-1 cells were expanded as a suspension up to 80% confluence in appropriate growth medium. Cells were harvested, suspended, and treated with an appropriate concentration of phorbol 12-myristate 13-acetate (PMA) over a 72 hr period (37° C./5% CO2).
Following 72 hrs of THP-1 cell incubation, cellular medium was removed and replaced with fresh growth media containing 1% of FBS. Working concentrations of compounds were prepared separately in 10% FBS treated growth medium and pre-incubated with the cells for 30 minutes (37° C./5% CO2). Following the 30 minute compound pre-incubation, THP-1s were treated with an appropriate concentration of LPS and the cells were subsequently incubated for a 24 hr period (37° C./5% CO2). An appropriate final concentration of Nigericin was then dispensed into the THP-1 plates and incubated for 1 hour (37° C./5% CO2) before THP-1 supernatants were harvested and collected in separate polypropylene 96-well holding plates.
Reagents from an IL-1β and IL-6 commercial kit (Perkin Elmer) were prepared and run according to the manufacturer's instructions. Subsequently, fluorescence signal detection in a microplate reader was measured (EnVision® Multilabel Reader, Perkin Elmer).
Percentage inhibition was calculated per cytokine by normalising the sample data to the high and low controls used within each plate (+/−LPS respectively). Percentage inhibition was then plotted against compound concentration and the 50% inhibitory concentration (IC50) was determined from the resultant concentration-response curve.

NRF2 = assay: DiscoverX PathHunter NRF2 translocation assay +/-GSH in U2OS cells; type: cell-based; conditions: for EC50: U2OS PathHunter cells, 6 hours, read-out: NRF2 activation EC50; for NRF2 activation Emax: normalised to DMF high control
Description: Potency and efficacy of compounds of formula (I) against the target of interest to activate NRF2 (nuclear factor erythroid 2-related factor 2) were determined using the PathHunter NRF2 translocation kit (DiscoverX). The NRF2 translocation assay was run using an engineered recombinant cell line, utilising enzyme fragment complementation to determine activation of the Keap1-NRF2 protein complex and subsequent translocation of NRF2 into the nucleus. Enzyme activity was quantified using a chemiluminescent substrate consumed following the formation of a functional enzyme upon PK-tagged NRF2 translocation into the nucleus.
The assay was run under both +/−GSH (glutathione) conditions to determine the sensitivity of the compounds' NRF2-activating abilities to attenuation by GSH.
Additionally, a defined concentration of DMF was used as the ‘High’ control to normalise test compound activation responses to.
U2OS PathHunter express cells were thawed from frozen prior to plating. Following plating, U2OS cells were incubated for 24 hrs (37° C./5% CO2) in commercial kit provided cell medium.
Following 24 hrs of U2OS incubation, cells were directly treated with an appropriate final concentration of compound, for −GSH conditions or, for +GSH conditions, an intermediate plate containing 6× working concentrations of compound stocks was prepared in a 6 mM working concentration of GSH solution (solubilised in sterile PBS). Following a 30 minute compound-GSH pre-incubation (37° C./5% CO2) for +GSH treatment, plated U2OS cells were incubated with an appropriate final concentration of compound and GSH.
Following compound (+/−GSH) treatment, the U2OS plates were incubated for a further 6 hours (37° C./5% CO2) before detection reagent from the PathHunter NRF2 commercial kit was prepared and added to test plates according to the manufacturer's instructions. Subsequently, the luminescence signal detection was measured in a microplate reader (PHERAstar®, BMG Labtech).
Percentage activation was calculated by normalising the sample data to the high and low controls used within each plate (+/−DMF). Percentage activation/response was then plotted against compound concentration and the 50% activation concentration (EC50) was determined from the plotted concentration-response curve.

IL-6 = assay: THP-1 AlphaLISA IL-6 cytokine inhibition assay (differentiated THP-1 cells, LPS then nigericin); type: cell-based; conditions: THP-1 cell, PMA-differentiated, LPS 24 hr + nigericin 1 hour
Description: The cytokine inhibition profiles of compounds of formula (I) were determined in a differentiated THP-1 cell assay. All assays were performed in RPMI-1640 growth medium (Gibco), supplemented with 10% fetal bovine serum (FBS; Gibco), 1% penicillin-streptomycin and 1% sodium pyruvate unless specified otherwise. The IL-1β cytokine inhibition assay was run in a background of differentiated THP-1 cells as described below. All reagents described were from Sigma-Aldrich unless specified otherwise. Compounds were prepared as 10 mM DMSO stocks. THP-1 cells were expanded as a suspension up to 80% confluence in appropriate growth medium. Cells were harvested, suspended, and treated with an appropriate concentration of phorbol 12-myristate 13-acetate (PMA) over a 72 hr period (37° C./5% CO2). Following 72 hrs of THP-1 cell incubation, cellular medium was removed and replaced with fresh growth media containing 1% of FBS. Working concentrations of compounds were prepared separately in 10% FBS treated growth medium and pre-incubated with the cells for 30 minutes (37° C./5% CO2). […] Subsequently, fluorescence signal detection in a microplate reader was measured (EnVision® Multilabel Reader, Perkin Elmer). Percentage inhibition was calculated per cytokine by normalising the sample data to the high and low controls used within each plate (+/−LPS respectively).

hepatocytes [1] = assay: Hepatocyte stability assay, mouse; type: in vitro ADME; conditions: 10 μM compound, 0.5×10^6 cells/mL
Description: (§1) Defrosted cryo-preserved hepatocytes (viability >70%) were used to determine the metabolic stability of a compound via calculation of intrinsic clearance (Clint; a measure of the removal of a compound from the liver in the absence of blood flow and cell binding). Clearance data are particularly important for in vitro work as they can be used in combination with in vivo data to predict the half-life and oral bioavailability of a drug.
(§2) The metabolic stability in hepatocytes assay involves a time-dependent reaction using both positive and negative controls. The cells were pre-incubated at 37° C. then spiked with test compound (and positive control); samples were taken at pre-determined time intervals and were analysed to monitor the change in concentration of the initial drug compound over 60 minutes. A buffer incubation reaction (with no hepatocytes present) acted as a negative control and two cocktail solutions, containing compounds with known high and low clearance values (verapamil/7-hydroxycoumarin and propranolol/diltiazem), acted as positive controls. • 1. The assay was run with a cell concentration of 0.5×10^6 cells/mL in Leibovitz buffer. • 2. All compounds and controls were run in duplicate. • 3. Compound concentration was 10 μM. • 4. All compounds and controls were incubated with both cells and buffer to show turnover was due to hepatic metabolism. • 5. All wells on the incubation plate had 326.7 μL of either cells or buffer added. • 6. Prior to assay, cell and buffer-only incubation plates were preincubated for 10 mins at 37° C. • 7. The assay was initiated by adding compounds, 3.3 μL of 1 mM in 10% DMSO-90% Buffer; final DMSO concentration was 0.1%. • 8. Samples were taken at regular timepoints (0, 5, 10, 20, 40, 60 min) until 60 mins. • 9. Sample volume was 40 μL and was added to 160 μL of crash solvent (acetonitrile with internal standard) and stored on ice. • 10. At the end of the assay, the crash plates were centrifuged at 3500 rpm for 20 mins at 4° C. • 11. 80 μL of clear supernatant was removed and mixed with 80 μL of deionised water before being analysed by LC-MS/MS.
(§3) Raw LC-MS/MS data was exported to, and analysed in, Microsoft Excel for determination of intrinsic clearance. The percentage remaining of a compound was monitored using the peak area of the initial concentration as 100%. Intrinsic clearance and half-life values were calculated using a graph of the natural log of percentage remaining versus the time of reaction in minutes. Half-life (min) and intrinsic clearance (Clint in μL min^−1 10^−6 cells) values were calculated using the gradient of the graph (the elimination rate constant, k) and Equations 1 and 2.

hepatocytes [2] = assay: Hepatocyte stability assay, human; type: in vitro ADME
Description: as §1, §2, §3

[3] = Hepatocyte stability assay, human; type: in vitro ADME; conditions: cryopreserved hepatocytes; Human hepatocytes, 10 μM compound, 0.5×10^6 cells/mL; read-out: T½
Description: as §1, §2, §3

[4] = Hepatocyte stability assay, mouse; type: in vitro ADME; conditions: cryopreserved hepatocytes, 10 μM compound, 0.5×10^6 cells/mL, read-out: T½
Description: as §1, §2, §3

[5] = Human hepatocytes, 10 μM compound, 0.5×10^6 cells/mL

Structure (SMILES)	IC50 (IL-1β)	EC50 (NRF2; +GSH)	NRF2 activation Emax (NRF2; +GSH)	EC50 (NRF2; −GSH)	NRF2 activation Emax (NRF2; −GSH)	IC50 (IL-6)	Clint (hepatocytes [1])	T½ (hepatocytes [1])	Clint (hepatocytes [2]; [5])	T½ (hepatocytes [2]; [5])	IC50 (IL-1β; Homo sapiens)	effectiveness in the IL-1β assay (IL-1β)	half-life at 10 μM [3]	IC50 (IL-6; Homo sapiens)	half-life at 10 μM [4]	stability (intrinsic clearance and half-life) compared to 4-octyl itaconate and 2-(2-chlorobenzyl)acrylic acid (hepatocytes [2]; mouse and/or human cells, result in words)
C=C(CC(=O)OCCCCCCCC)C(=O)O [4-octyl itaconate, reference compound]	37.8 µM	28.9 µM	148%	22.1 µM	165%	19.1 µM	351 μL min^−1 10^−6 cells	4 min	401 μL min^−1 10^−6 cells	4 min						
C=C(Cc1nc(-c2ncc(Oc3ccc(F)cc3)cc2Cl)no1)C(=O)O [Example 4, 2-((3-(3-chloro-5-(4-fluorophenoxy)pyridin-2-yl)-1,2,4-oxadiazol-5-yl)methyl)acrylic acid]		15.5 µM	145%	7.07 µM	208.56%						2.12 µM					
C=C(Cc1nc(-c2ccc(OCCCC)nc2)no1)C(=O)O [Example 1, 2-((3-(6-butoxypyridin-3-yl)-1,2,4-oxadiazol-5-yl)methyl)acrylic acid]		19.5 µM	130%	20.8 µM	192.5%						> 100 µM	not effective				
C=C(Cc1ccccc1Cl)C(=O)O [2-(2-chlorobenzyl)acrylic acid, reference compound]		> 100 µM	9%	> 100 µM	2%		95 μL min^−1 10^−6 cells		21 μL min^−1 10^−6 cells		> 100 µM		59 min			
COC(=O)/C=C/C(=O)O [monomethyl fumarate, reference compound]											> 100 µM			> 100 µM		
C=C(Cc1nc(-c2ncc(OCCCC)cc2Cl)no1)C(=O)O [Example 3, 2-((3-(5-butoxy-3-chloropyridin-2-yl)-1,2,4-oxadiazol-5-yl)methyl)acrylic acid]		11.4 µM	78.58%	22.7 µM	172.5%		133 μL min^−1 10^−6 cells		7.18 μL min^−1 10^−6 cells		2.09 µM		181 min		9.27 min	more stable
C=C(Cc1nc(-c2ccc(OCCCC)cn2)no1)C(=O)O [Example 2, 2-((3-(5-butoxypyridin-2-yl)-1,2,4-oxadiazol-5-yl)methyl)acrylic acid]											> 100 µM	not effective				

From patent US20260138973A1, “SUBSTITUTED PYRIDINES FOR USE IN TREATING OR PREVENTING INFLAMMATORY DISEASES OR DISEASES ASSOCIATED WITH AN UNDESIRABLE IMMUNE RESPONSE” (SITRYX THERAPEUTICS LIMITED, priority 2022, published 2026)
